In one assay the test system is NB-4 leukemic cell line. Description: Fixed propidium iodide staining, flow cytometry. The class given is cell-based, human. The settings on record: 48 h. (In general: Flow cytometry measures light scatter and fluorescence of single cells or particles in a stream.)
Assay [1] relates to 1232 melanoma tumour cell line. The experiment in a line: MTT assay. It counts as cell-based. The settings on record: 48 h, read-out: MTT50. The method, then:
(§1) All cell lines were assayed as asynchronously growing cells. Leukemic cell lines, OCI-AML-2, OCI-AML-3 (referred to hereafter as AML-2 and AML-3, respectively), NB-4, KK, B1, G2, and W1 were cultured in alpha-minimal essential medium (α-MEM) (Princess Margaret Hospital Media Services) supplemented with 10% fetal bovine serum (FBS) (Sigma, St. Louis, Mo.). Non-transformed, diploid fibroblast lines WI38 and IMR90, were cultured in α-MEM and MEM F-15, respectively supplemented with 10% FBS. Media for IMR90 cells was also supplemented with 1.5 g/L bicarbonate and 1 mM pyruvate. Breast tumour cell lines, MDA-231, SK-BR-3, MCF-7, ZR-751, and melanoma tumour cell lines, WM9, WM983, WM793, 1232, were grown in α-MEM supplemented with 10% fetal bovine serum. Prostate tumour cell lines, DU145 and PC-3, were grown in RPMI 1640 media supplemented with 10% FBS. All cell lines were cultured in the presence of penicillin/streptomycin. Mononucleated cells were isolated from normal bone marrow using Ficoll hypaque and then T-cell depleted. T-cell depletion was performed by incubating the mononucleated bone marrow cells in α-MEM at a concentration of 2×10^7 cells/mL with 10% absor FBS and 10% (v/v) sheep red blood cells for 4 to 16 h. Absor FBS was prepared beforehand by heating FBS at 56° C. for 1 h, incubating with sheep red blood cells at 0.5% (v/v) for 1 h and then filtering the FBS with a […]. The T-cell depleted, mononucleated cells were recovered using Ficoll hypaque and were maintained in α-MEM supplemented with 20% FBS and 10% 5637 ? nditioned media. 5637 conditioned media ? s previously harvested from confluent 5637 cells after a 3 day incubation. Normal bone marrow from bone marrow transplant donor was collected following informed consent according to institutional guidelines.
(§2) Approximately 20 mg of each compound was dissolved in 5 mL of ACS grade acetone (Sigma) using a 5 mL volumetric flask. Stock solutions of the compounds were stored in the dark at −20° C. Compounds were diluted prior to each experiment.
(§3) Adherent cells were seeded at 67×10^3 cells/mL in a 96 well plate (Falcon, Mississauga, Ontario) the day prior to exposure to compound. Suspension cells were seeded at 27×10^4 cells/mL in a 96 well plate the day of exposure to compound. Mononucleated, T-cell depleted normal bone marrow cells were seeded at 67×10^4 cells/mL in a 96 well plate the day of exposure to compound. Compounds and solvent control were added to cells and assayed in triplicate or sextuplet. Following 48 h of incubation at 37° C. with 5% CO2, 40 μL of a 5 mg/mL solution of 3-[4,5-dimethylthiazol-2-yl]-2,5-diphenyltetrazolium bromide (MTT) substrate (Sigma) in Dulbecco's phosphate-buffered saline (D-PBS) was added. After 4 h of incubation at 37° C. with 5% CO2, the resulting violet formazan precipitate was solubilized by the addition of 80 μL of a 0.01 M HCI, 10% sodium dodecyl sulfate (SDS; Sigma) solution overnight at 37° C. with 5% CO2. The plates were then analyzed using the BioRad Benchmark Microplate Reader (BioRad Laboratories, Hercules, Calif.) at 570 nm to determine the optical density of the samples. MTT data was analyzed using Prism 3.0 (GraphPad Software, Inc., San Diego, Calif.) by the Chou-Talalay method. MTT graphs shown are a representative experiment.
(§4) Adherent cells were seeded at 67×10^3 cells/mL in a 96 well plate (Falcon, Mississauga, Ontario) the day prior to exposure to compound. Suspension cells were seeded at 27×10^4 cells/mL in a 96 well plate the day of exposure to compound. Mononucleated, T-cell depleted normal bone marrow cells were seeded at 67×10^4 cells/mL in a 96 well plate the day of exposure to compound. Compounds and solvent control were added to cells and assayed in triplicate or sextuplet. […]
(Formazan colour is commonly taken as a measure of viable cells.)

In assay [2] the test system is DU145 prostate tumour cell line. The experiment in a line: MTT assay. It counts as cell-based. Conditions: Homo sapiens, DU-145, 48 h, read-out: MTT50. The method, then: as §1, §2, §3, §4
Assay [3] concerns MDA-231 breast tumour cell line. The experiment in a line: MTT assay. The class given is cell-based. Conditions: Homo sapiens, MDA-MB-231, 48 h, read-out: MTT50. The method, then: as §1, §2, §3, §4
Assay [4] has as its system SK-BR-3 breast tumour cell line. Description: MTT assay. The class given is cell-based. Conditions: Homo sapiens, 48 h, read-out: MTT50. The method, then: as §1, §2, §3, §4
The subject of assay [5] is WM793 melanoma tumour cell line. The experiment in a line: MTT assay. The settings on record: Homo sapiens, 48 h, read-out: MTT50. The class given is cell-based. The method, then:
as §1, §2, §3, §4

Assay [6] concerns WM9 melanoma tumour cell line. Description: MTT assay. The class given is cell-based. Conditions: 48 h, read-out: MTT50. The method, then:
as §1, §2, §3, §4

The test system of assay [7] is WM983 melanoma tumour cell line. The experiment in a line: MTT assay. The class given is cell-based. The settings on record: 48 h, read-out: MTT50. The method, then: as §1, §2, §3, §4
The test system of assay [8] is ZR-751 breast tumour cell line. The experiment in a line: MTT assay. It counts as cell-based. The settings on record: Homo sapiens, ZR-75-1, 48 h, read-out: MTT50. The method, then: as §1, §2, §3, §4

Consider `CSSCC(=O)c1ccccc1` [Compound P, phenacyl methyl disulphide], for which the “% pre-G1 (Fixed PI)” value in the assay on NB-4 leukemic cell line (NB-4, dose 50 uM) was determined as 18%; in the assay with NB-4 leukemic cell line (NB-4, dose 150 uM), 75%.

For the molecule `CCC(=O)OCSSc1ccccc1` [Compound Q, 1-phenyl-1,2-dithiapropyl propionate], the IC50 is 56 µM in [1]; 65.4 µM in assay [2]; 68.9 µM in assay [3]; 59 µM in [4]; 47 µM in [5]; 41 µM in [6]. Moreover, the IC50 was determined as 47 µM in assay [7] and 52 µM in assay [8].

Turning to `CSSc1ccc([N+](=O)[O-])cc1` [M, methyl p-nitrophenyl disulphide], the “% pre-G1 (Fixed PI)” value in the assay on NB-4 leukemic cell line (cell line printed NBA, dose 20 uM) amounted to 16%; in the assay with NB-4 leukemic cell line (cell line printed NBA, dose 40 uM), 60%.

For the origin of these results see US20030220524A1, “Sulfur containing compounds” (priority 2000, published 2003).
